Results as given in patent US20230227917A1, “PREDICTING RESPONSE TO PD-1 AXIS INHIBITORS” (Hoffmann-La Roche Inc., priority 2020, published 2023).

Experiments:
Type in all cases: in vivo, human
[1] = test system: patients with locally advanced or metastatic Non-Small Cell Lung Cancer; assay: Survival by stem cell score, Phase III trial OAK (NCT02008227), Atezolizumab vs Docetaxel; conditions: for HR overall survival, score low vs high: within treatment
From the text: We hypothesized that patients with a low abundance of stem cell maintenance-related cancer cells may respond to PD-L1 blockade leading to beneficial effect in patients who received the treatment. We analyzed 739 patients with non-small cell lung cancer who received Atezolizumab (MPDL3280A, n=358) and Docetaxel (n=381) in a Phase III clinical trial (NCT02008227, OAK) (https://clinicaltrials.gov/ct2/show/NCT02008227). This study was sponsored by Genentech Inc., a member of the Roche Group, which provided the study drug.
The protocol and its amendments were approved by the relevant institutional review boards or ethics committees, and all participants provided written informed consent. This study was conducted in accordance with the Declaration of Helsinki and International Conference on Harmonization Guidelines for Good Clinical Practice. Tumor specimens at baseline were archived and taken for gene expression profiling performed by RNA Sequencing (RNA-Seq). In total, 144 human stem cell related genes derived from Gene Ontology were selected and further processed resulting in a selected a list of 4 genes consisting of ASPM, CNOT3, LRPS, and PBX1, which are associated with abundance of stem cell maintenance-related cancer cells. The log2 CPM expression values of each selected gene across the whole cohort were divided at medium expression level for the higher expression ones (+) and lower/no expression ones (−). Using in-house R scripts, the two defined subgroups were plotted against the Kaplan-Meier survival curves.
(§1) As several genes linked to stem cell maintenance-related cancer cells were associated with the survival advantages, we investigated the impact of multiple genes involved in stem cell maintenance-related cancer cells by defining a cumulative cancer stem cell gene score reflecting the cumulative expression of these marker genes. Each gene's expression is first standardized by a z-score:
(§2) where μ and μ are estimated in the entire cohort or in the selected subgroups. After the standardization step, these standardized z-score values are averaged across genes within each patient. The OAK cohort was corrected for the sex of patient, age, histolog as well as PD-L1 status. […] In addition, we also identified an advantage in progression-free survival.

[2] = test system: patients with locally advanced or metastatic Urothelial Bladder Cancer; assay: Survival by stem cell score, Phase III trial IMvigor211 (NCT02302807), Atezolizumab vs standard of care
From the text: (§3) We hypothesized that patients with a low abundance of stem cell maintenance-related cancer cells may respond to PD-L1 blockade leading to beneficial effect in patients who received the treatment. We analyzed 750 patients with locally advanced or metastatic urothelial bladder cancer who received Atezolizumab (n=369), Paclitaxel (n=123), Vinflunine (n=194) or Docetaxel (n=41) in a Phase III clinical trial (NCT02302807, IMvigor 211) (https://clinicaltrials.gov/ct2/show/NCT02302807). This study was sponsored by Genentech Inc., a member of the Roche Group, which provided the study drug. The protocol and its amendments were approved by the relevant institutional review boards or ethics committees, and all participants provided written informed consent. This study was conducted in accordance with the Declaration of Helsinki and International Conference on Harmonization Guidelines for Good Clinical Practice.
(§4) Tumor specimens at baseline were archived and taken for gene expression profiling performed by RNA Sequencing (RNA-Seq). In total, 144 human stem cell related genes derived from Gene Ontology were selected and further processed resulting in a selected a list of 4 genes consisting of ASPM, CNOT3, LRPS, and PBX1, which are associated with abundance of stem cell maintenance-related cancer cells. The log2 CPM expression values of each selected gene across the whole cohort were divided at medium expression level for the higher expression ones (+) and lower/no expression ones (−). Using in-house R scripts, the two defined subgroups were plotted against the Kaplan-Meier survival curves. […] Table 3 summarizes the median survival as well as HR per single gene used for the stem cell maintenance-related cancer cells signature.
as §1
as §2, with “IMvigor211” for “OAK”, “age” for “age, histolog”, “smoking” for “PD-L1”, “adavantage” for “advantage”

[3] = test system: patients with locally advanced or metastatic Non-Small Cell Lung Cancer; assay: Survival by stem cell score, Phase II trial BIRCH (NCT02031458), Atezolizumab
From the text: as §3, with “597” for “750”, “non-small cell lung” for “locally advanced or metastatic urothelial bladder”, “Atezolizumab” for “Atezolizumab (n=369), Paclitaxel (n=123), Vinflunine (n=194) or Docetaxel (n=41)”, “II” for “III”, “(NCT02031458, BIRCH) (https://clinicaltrials.gov/ct2/show/NCT02031458).” for “(NCT02302807, IMvigor 211) (https://clinicaltrials.gov/ct2/show/NCT02302807).”
as §4, with “Sequencing (RNA-Seq).).” for “Sequencing (RNA-Seq).”, “Table 2” for “Table 3”
as §1
as §2, with “BIRCH” for “OAK”, “age” for “age, histolog”, “smoking” for “PD-L1”

[4] = cumulative cancer stem cell score (ASPM, CNOT3, LRP5, PBX1) low
[5] = cumulative cancer stem cell score high
[6] = cumulative cancer stem cell score
[7] = gene ASPM, Stem cell score high
[8] = gene CNOT3, Stem cell score high
[9] = gene CNOT3, Stem cell score low
[10] = gene LRP5, Stem cell score high
[11] = gene PBX1, Stem cell score high
[12] = cumulative cancer stem cell score low

## CC(=O)O[C@@]12CO[C@@H]1C[C@H](O)[C@@]1(C)C(=O)[C@H](O)C3=C(C)[C@@H](OC(=O)[C@H](O)[C@@H](NC(=O)OC(C)(C)C)c4ccccc4)C[C@@](O)([C@@H](OC(=O)c4ccccc4)[C@H]21)C3(C)C [Docetaxel]
[1]; [4]
  median overall survival: 334 days
[1]; [5]
  median overall survival: 282 days
[1]; [6]
  HR overall survival, score low vs high: 0.76
[1]; [7]
  Median survival: 270 days
[1]; gene ASPM, Stem cell score low
  Median survival: 365 days
[1]; [8]
  Median survival: 299 days
[1]; [9]
  Median survival: 339 days
[1]; [10]
  Median survival: 320 days
[1]; gene LRP5, Stem cell score low
  Median survival: 312 days
[1]; [11]
  Median survival: 262 days
[1]; gene PBX1, Stem cell score low
  Median survival: 356 days

## atezolizumab
[2]; [6]
  HR overall survival, score low vs high: 0.64
  HR progression-free survival, score low vs high: 0.69
[2]; [5]
  median overall survival: ~211 days
  median progression-free survival: ~63 days
[2]; [12]
  median overall survival: ~357 days
  median progression-free survival: ~66 days
[2]; cumulative stem cell score low groups, Atezolizumab vs standard of care
  HR overall survival, predictive effect for Atezolizumab: 0.70
[2]; gene ASPM
  HR (low vs high): HR: 1.05
[2]; [7]
  Median survival: 271 days
[2]; gene ASPM, Stem cell score low
  HR (Atezo vs SoC): HR: 0.93
  Median survival: 257 days
[2]; gene CNOT3
  HR (low vs high): HR: 0.85
[2]; [8]
  Median survival: 242 days
[2]; [9]
  HR (Atezo vs SoC): HR: 0.83
  Median survival: 297 days
[2]; gene LRP5
  HR (low vs high): HR: 0.76
[2]; [10]
  Median survival: 241 days
[2]; gene LRP5, Stem cell score low
  HR (Atezo vs SoC): HR: 0.74
  Median survival: 298 days
[2]; gene PBX1
  HR (low vs high): HR: 0.74
[2]; [11]
  Median survival: 247 days
[2]; gene PBX1, Stem cell score low
  HR (Atezo vs SoC): HR: 0.67
  Median survival: 279 days
[1]; [6]
  HR progression-free survival, score low vs high: 0.69
  HR overall survival, score low vs high: 0.67
[1]; [4]
  median overall survival: 492 days
[1]; [5]
  median overall survival: ~257 days
  median progression-free survival: ~51 days
[1]; [12]
  median progression-free survival: ~86 days
[1]; cumulative stem cell score low group, Atezolizumab vs Docetaxel
  HR overall survival, predictive effect for Atezolizumab: 0.72
[1]; [7]
  Median survival: 256 days
[1]; gene ASPM, Stem cell score low
  Median survival: 467 days
[1]; gene ASPM, Stem cell score low, Atezolizumab vs Docetaxel
  HR (Atezo vs SoC): HR: 0.84
[1]; gene ASPM, score low vs high within treatment
  HR (low vs high): HR: 0.65
[1]; [8]
  Median survival: 337 days
[1]; [9]
  Median survival: 433 days
[1]; gene CNOT3, Stem cell score low, Atezolizumab vs Docetaxel
  HR (Atezo vs SoC): HR: 0.83
[1]; gene CNOT3, score low vs high within treatment
  HR (low vs high): HR: 0.89
[1]; [10]
  Median survival: 384 days
[1]; gene LRP5, Stem cell score low
  Median survival: 405 days
[1]; gene LRP5, Stem cell score low, Atezolizumab vs Docetaxel
  HR (Atezo vs SoC): HR: 0.83
[1]; gene LRP5, score low vs high within treatment
  HR (low vs high): HR: 0.97
[1]; [11]
  Median survival: 329 days
[1]; gene PBX1, Stem cell score low
  Median survival: 456 days
[1]; gene PBX1, Stem cell score low, Atezolizumab vs Docetaxel
  HR (Atezo vs SoC): HR: 0.92
[1]; gene PBX1, score low vs high within treatment
  HR (low vs high): HR: 0.89
[3]; [6]
  HR overall survival, score low vs high: 0.77
  HR progression-free survival, score low vs high: 0.74
[3]; [5]
  median overall survival: ~437 days
  median progression-free survival: ~89 days
[3]; [12]
  median overall survival: ~583 days
  median progression-free survival: ~127 days
[3]; gene ASPM
  HR (low vs high): HR: 0.78
[3]; [7]
  Median survival: 457 days
[3]; gene ASPM, Stem cell score low
  Median survival: 566 days
[3]; gene CNOT3
  HR (low vs high): HR: 0.88
[3]; [8]
  Median survival: 482 days
[3]; [9]
  Median survival: 510 days
[3]; gene LRP5
  HR (low vs high): HR: 1.02
[3]; [10]
  Median survival: 498 days
[3]; gene LRP5, Stem cell score low
  Median survival: 471 days
[3]; gene PBX1
  HR (low vs high): HR: 1.02
[3]; [11]
  Median survival: 510 days
[3]; gene PBX1, Stem cell score low
  Median survival: 471 days
